# PubChem BioAssay (NCI)
#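 These data come from cells grown in 96-well plates and exposed to compound for 48 hours at five concentrations. GI50 is the concentration that inhibits growth by half. TGI: concentration producing complete growth inhibition.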
# Legend:
# Experiment in all cases: NCI-60 cell line screen, 48 h
# OVCAR-4 ovarian = system: OVCAR-4 ovarian
# A549 NSCLC = system: A549 NSCLC
# BT-549 breast = system: BT-549 breast
# NCI/ADR-RES ovarian = system: NCI/ADR-RES ovarian
# CAKI-1 renal = system: CAKI-1 renal
# MCF7 breast = system: MCF7 breast
# KM12 colon = system: KM12 colon
# SK-MEL-2 melanoma = system: SK-MEL-2 melanoma
# M14 melanoma = system: M14 melanoma
# OVCAR-8 ovarian = system: OVCAR-8 ovarian
# UO-31 renal = system: UO-31 renal
# SNB-19 CNS = system: SNB-19 CNS
# ACHN renal = system: ACHN renal
# T-47D breast = system: T-47D breast
# SF-295 CNS = system: SF-295 CNS
# SNB-75 CNS = system: SNB-75 CNS
# HOP-92 NSCLC = system: HOP-92 NSCLC
# OVCAR-5 ovarian = system: OVCAR-5 ovarian
# EKVX NSCLC = system: EKVX NSCLC
# MDA-MB-435 = system: MDA-MB-435
# NCI-H23 lung = system: NCI-H23 lung
# RXF 393 renal = system: RXF 393 renal
# A498 renal = system: A498 renal
# MDA-MB-468 breast = system: MDA-MB-468 breast
# NCI-H460 lung = system: NCI-H460 lung
# HOP-62 NSCLC = system: HOP-62 NSCLC
# SK-OV-3 ovarian = system: SK-OV-3 ovarian
# SN12C renal = system: SN12C renal
# K-562 leukemia = system: K-562 leukemia
# NCI-H226 lung = system: NCI-H226 lung
# PC-3 prostate = system: PC-3 prostate
# MOLT-4 leukemia = system: MOLT-4 leukemia
# SF-539 CNS = system: SF-539 CNS
# NCI-H522 lung = system: NCI-H522 lung
# DU-145 prostate = system: DU-145 prostate
# COLO 205 colon = system: COLO 205 colon
# UACC-257 melanoma = system: UACC-257 melanoma
# SK-MEL-5 melanoma = system: SK-MEL-5 melanoma
# U251 CNS = system: U251 CNS
# UACC-62 melanoma = system: UACC-62 melanoma
# MDA-MB-231 breast = system: MDA-MB-231 breast
# SF-268 CNS = system: SF-268 CNS
# SK-MEL-28 melanoma = system: SK-MEL-28 melanoma
# IGROV1 ovarian = system: IGROV1 ovarian
# MALME-3M melanoma = system: MALME-3M melanoma
# HS 578T breast = system: HS 578T breast
# TK-10 renal = system: TK-10 renal
compound,measurement,setting,value
Cn1cc(-c2cc(N)n3nc(-c4c[nH]c5ccccc45)cc3n2)c2cccnc21,GI50,OVCAR-4 ovarian,3.42 µM
same,TGI,OVCAR-4 ovarian,> 100 µM
same,GI50,A549 NSCLC,4.19 µM
same,TGI,A549 NSCLC,> 100 µM
same,GI50,BT-549 breast,11.8 µM
same,TGI,BT-549 breast,33.6 µM
same,GI50,NCI/ADR-RES ovarian,4.66 µM
same,TGI,NCI/ADR-RES ovarian,> 100 µM
same,GI50,CAKI-1 renal,3.85 µM
same,TGI,CAKI-1 renal,44.8 µM
same,GI50,MCF7 breast,3.3 µM
same,TGI,MCF7 breast,> 100 µM
same,GI50,KM12 colon,3.34 µM
same,TGI,KM12 colon,14.7 µM
same,GI50,SK-MEL-2 melanoma,12.5 µM
same,TGI,SK-MEL-2 melanoma,43.1 µM
same,GI50,M14 melanoma,2.63 µM
same,TGI,M14 melanoma,6.79 µM
same,GI50,OVCAR-8 ovarian,4.63 µM
same,TGI,OVCAR-8 ovarian,> 100 µM
same,GI50,UO-31 renal,5.41 µM
same,TGI,UO-31 renal,26.6 µM
same,GI50,SNB-19 CNS,14.8 µM
same,TGI,SNB-19 CNS,31.4 µM
same,GI50,ACHN renal,3.77 µM
same,TGI,ACHN renal,21.1 µM
same,GI50,T-47D breast,2.99 µM
same,TGI,T-47D breast,13.1 µM
same,GI50,SF-295 CNS,1.99 µM
same,TGI,SF-295 CNS,4.74 µM
same,GI50,SNB-75 CNS,2.44 µM
same,TGI,SNB-75 CNS,44.2 µM
same,GI50,HOP-92 NSCLC,5.81 µM
same,TGI,HOP-92 NSCLC,27.8 µM
same,GI50,OVCAR-5 ovarian,11 µM
same,TGI,OVCAR-5 ovarian,39.1 µM
same,GI50,EKVX NSCLC,15.3 µM
same,TGI,EKVX NSCLC,> 100 µM
same,GI50,MDA-MB-435,11 µM
same,TGI,MDA-MB-435,29.5 µM
same,GI50,NCI-H23 lung,19 µM
same,TGI,NCI-H23 lung,73.6 µM
same,GI50,RXF 393 renal,2.28 µM
same,TGI,RXF 393 renal,8.2 µM
same,GI50,A498 renal,23 µM
same,TGI,A498 renal,54.8 µM
same,GI50,MDA-MB-468 breast,2.22 µM
same,TGI,MDA-MB-468 breast,6.42 µM
same,GI50,NCI-H460 lung,3.56 µM
same,TGI,NCI-H460 lung,> 100 µM
same,GI50,HOP-62 NSCLC,6.15 µM
same,TGI,HOP-62 NSCLC,59.7 µM
same,GI50,SK-OV-3 ovarian,20.6 µM
same,TGI,SK-OV-3 ovarian,69.5 µM
same,GI50,SN12C renal,11.6 µM
same,TGI,SN12C renal,42.1 µM
same,GI50,K-562 leukemia,2.79 µM
same,TGI,K-562 leukemia,> 100 µM
same,GI50,NCI-H226 lung,14.1 µM
same,TGI,NCI-H226 lung,> 100 µM
same,GI50,PC-3 prostate,3.83 µM
same,TGI,PC-3 prostate,23.6 µM
same,GI50,MOLT-4 leukemia,3.32 µM
same,TGI,MOLT-4 leukemia,> 100 µM
same,GI50,SF-539 CNS,2.58 µM
same,TGI,SF-539 CNS,7.31 µM
same,GI50,NCI-H522 lung,5.54 µM
same,TGI,NCI-H522 lung,35.9 µM
same,GI50,DU-145 prostate,5.09 µM
same,TGI,DU-145 prostate,> 100 µM
same,GI50,COLO 205 colon,10.7 µM
same,TGI,COLO 205 colon,45.1 µM
same,GI50,UACC-257 melanoma,13.7 µM
same,TGI,UACC-257 melanoma,33.5 µM
same,GI50,SK-MEL-5 melanoma,7.04 µM
same,TGI,SK-MEL-5 melanoma,20.5 µM
same,GI50,U251 CNS,3.34 µM
same,TGI,U251 CNS,> 100 µM
same,GI50,UACC-62 melanoma,5.71 µM
same,TGI,UACC-62 melanoma,21.7 µM
same,GI50,MDA-MB-231 breast,3.4 µM
same,TGI,MDA-MB-231 breast,28.8 µM
same,GI50,SF-268 CNS,17.9 µM
same,TGI,SF-268 CNS,81.9 µM
same,GI50,SK-MEL-28 melanoma,5.33 µM
same,TGI,SK-MEL-28 melanoma,20.2 µM
same,GI50,IGROV1 ovarian,19.1 µM
same,TGI,IGROV1 ovarian,55.9 µM
same,GI50,MALME-3M melanoma,3.25 µM
same,TGI,MALME-3M melanoma,17.1 µM
same,GI50,HS 578T breast,20 µM
same,TGI,HS 578T breast,> 100 µM
same,GI50,TK-10 renal,17.1 µM
same,TGI,TK-10 renal,59.3 µM
